# Measured values reported in patent US20100285476A1, “METHODS OF IDENTIFYING HISTONE DEACETYLASE INHIBITORS USEFUL FOR NEUROLOGICAL DISORDERS” (priority 2007, published 2010).
# What was measured:
# frataxin (FXN1) mRNA = assay: Frataxin mRNA expression in lymphocytes by quantitative RT-PCR; conditions: for frataxin mRNA expression, result in words / Fold Increase FXN1 Expr. (10 μM): 10 μM; for frataxin mRNA expression, result in words: human lymphocytes; for Fold Increase FXN1 Expr. (10 μM): human lymphocytes of normal donors, vs vehicle control
# HDAC5 = HDAC5 (Homo sapiens, UniProt Q9UQL6); assay: HDAC enzyme inhibition assay, purified HDAC5; format: biochemical
# Sequence of HDAC5 (Q9UQL6 whole entry): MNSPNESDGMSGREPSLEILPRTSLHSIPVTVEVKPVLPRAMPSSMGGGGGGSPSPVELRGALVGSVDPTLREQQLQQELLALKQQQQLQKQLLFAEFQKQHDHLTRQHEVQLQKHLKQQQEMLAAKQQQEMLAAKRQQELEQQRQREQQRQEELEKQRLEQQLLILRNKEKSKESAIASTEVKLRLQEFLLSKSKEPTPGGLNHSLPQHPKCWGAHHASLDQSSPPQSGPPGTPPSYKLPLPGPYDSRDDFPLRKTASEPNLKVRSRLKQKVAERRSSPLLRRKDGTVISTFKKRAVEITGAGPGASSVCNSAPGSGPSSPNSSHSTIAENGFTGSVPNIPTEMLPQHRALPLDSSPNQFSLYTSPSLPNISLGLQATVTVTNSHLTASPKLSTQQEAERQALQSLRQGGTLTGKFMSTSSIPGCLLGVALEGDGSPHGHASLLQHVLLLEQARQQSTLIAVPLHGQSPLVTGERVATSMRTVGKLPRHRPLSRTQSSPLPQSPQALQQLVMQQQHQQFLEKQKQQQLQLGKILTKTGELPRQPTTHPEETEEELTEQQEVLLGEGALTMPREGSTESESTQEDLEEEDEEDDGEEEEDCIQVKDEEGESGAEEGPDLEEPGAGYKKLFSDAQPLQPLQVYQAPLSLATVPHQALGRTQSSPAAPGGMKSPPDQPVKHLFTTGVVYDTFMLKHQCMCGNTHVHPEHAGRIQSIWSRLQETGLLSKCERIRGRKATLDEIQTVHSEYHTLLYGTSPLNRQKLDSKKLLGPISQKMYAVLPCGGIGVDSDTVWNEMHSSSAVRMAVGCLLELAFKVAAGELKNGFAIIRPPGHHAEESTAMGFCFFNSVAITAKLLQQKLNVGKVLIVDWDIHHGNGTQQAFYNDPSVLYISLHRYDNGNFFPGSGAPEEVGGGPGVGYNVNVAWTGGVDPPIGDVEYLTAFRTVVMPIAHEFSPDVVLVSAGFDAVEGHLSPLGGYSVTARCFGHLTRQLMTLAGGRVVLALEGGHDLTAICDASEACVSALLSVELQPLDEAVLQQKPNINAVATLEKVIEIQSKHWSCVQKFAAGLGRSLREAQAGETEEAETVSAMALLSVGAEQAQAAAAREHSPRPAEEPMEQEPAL
# HepG2 cells = assay: Growth inhibition of HepG2 cells (CellTiter 96 AQueous One Solution); format: cell-based, human; conditions: for cytotoxicity, result in words / IC50: HepG2 cells; for HepG2/HDAC3 (estimated therapeutic index): HepG2 growth IC50 divided by IC50 for HDAC3; for IC50: Homo sapiens, 72 hours
# HDAC1 = HDAC1 (Homo sapiens, UniProt Q13547); assay: HDAC enzyme inhibition assay, purified HDAC1; format: biochemical
# Sequence of HDAC1 (Q13547 whole entry): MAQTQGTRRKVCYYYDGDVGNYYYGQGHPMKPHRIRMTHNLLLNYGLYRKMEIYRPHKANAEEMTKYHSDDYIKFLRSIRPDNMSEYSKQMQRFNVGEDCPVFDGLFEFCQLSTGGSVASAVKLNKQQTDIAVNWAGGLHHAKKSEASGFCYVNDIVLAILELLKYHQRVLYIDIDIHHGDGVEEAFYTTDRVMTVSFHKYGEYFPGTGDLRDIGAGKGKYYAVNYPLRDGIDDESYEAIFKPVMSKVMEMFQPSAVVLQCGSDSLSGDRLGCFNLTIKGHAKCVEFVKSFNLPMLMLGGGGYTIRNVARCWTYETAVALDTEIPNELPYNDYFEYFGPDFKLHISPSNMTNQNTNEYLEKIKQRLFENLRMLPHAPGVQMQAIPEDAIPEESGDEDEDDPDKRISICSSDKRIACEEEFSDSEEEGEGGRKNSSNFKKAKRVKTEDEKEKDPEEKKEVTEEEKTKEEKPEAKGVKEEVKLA
# HDAC2 = HDAC2 (Homo sapiens, UniProt Q92769); assay: HDAC enzyme inhibition assay, purified HDAC2; format: biochemical
# Sequence of HDAC2 (Q92769 whole entry): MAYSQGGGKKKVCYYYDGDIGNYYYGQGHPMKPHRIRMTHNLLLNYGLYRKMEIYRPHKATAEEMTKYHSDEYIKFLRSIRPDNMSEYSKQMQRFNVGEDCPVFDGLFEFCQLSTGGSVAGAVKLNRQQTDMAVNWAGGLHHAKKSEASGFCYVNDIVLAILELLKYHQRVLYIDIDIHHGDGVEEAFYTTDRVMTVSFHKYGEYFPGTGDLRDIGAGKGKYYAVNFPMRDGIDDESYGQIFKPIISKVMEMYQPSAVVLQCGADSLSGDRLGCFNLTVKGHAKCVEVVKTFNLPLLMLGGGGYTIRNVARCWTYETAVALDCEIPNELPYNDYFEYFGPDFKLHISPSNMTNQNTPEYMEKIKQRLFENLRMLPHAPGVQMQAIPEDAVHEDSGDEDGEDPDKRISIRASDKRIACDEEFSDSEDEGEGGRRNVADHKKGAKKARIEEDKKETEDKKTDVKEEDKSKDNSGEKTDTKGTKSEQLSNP
# HDAC3 = HDAC3 (Homo sapiens, UniProt O15379); assay: HDAC enzyme inhibition assay, purified HDAC3; format: biochemical; conditions: for Relative Inhibitory Activity HDAC 1/3: IC50 for HDAC1 divided by IC50 for HDAC3; for Relative Inhibitory Activity HDAC 2/3: IC50 for HDAC2 divided by IC50 for HDAC3; for Relative Inhibitory Activity HDAC 5/3: IC50 for HDAC5 divided by IC50 for HDAC3; for IC50: purified HDAC3
# Sequence of HDAC3 (O15379 whole entry): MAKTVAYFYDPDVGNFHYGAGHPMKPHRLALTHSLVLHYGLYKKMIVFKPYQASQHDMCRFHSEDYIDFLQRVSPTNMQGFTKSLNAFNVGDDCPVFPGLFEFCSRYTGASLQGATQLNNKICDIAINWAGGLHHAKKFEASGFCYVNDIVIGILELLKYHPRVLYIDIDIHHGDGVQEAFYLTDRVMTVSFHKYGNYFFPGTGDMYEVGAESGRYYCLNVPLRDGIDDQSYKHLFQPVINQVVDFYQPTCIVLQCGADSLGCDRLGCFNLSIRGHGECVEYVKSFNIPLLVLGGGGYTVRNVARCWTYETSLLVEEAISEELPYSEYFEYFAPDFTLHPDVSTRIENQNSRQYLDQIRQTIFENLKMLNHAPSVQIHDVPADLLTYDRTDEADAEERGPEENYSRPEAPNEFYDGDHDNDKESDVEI
# Sequence of HDAC3 (Q9Y618 395-489 partner limits assumed): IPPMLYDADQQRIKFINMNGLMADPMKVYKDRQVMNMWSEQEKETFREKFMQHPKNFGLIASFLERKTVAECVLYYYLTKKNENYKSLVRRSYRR
# HDACs 1-10 = assay: Panel of individual purified HDAC enzymes (HDACs 1-10); format: biochemical, human
IC50 (HDAC5),IC50 (HepG2 cells),IC50 (HDAC1),IC50 (HDAC2),"HDAC3 inhibition, result in words (HDAC3)",Relative Inhibitory Activity HDAC 1/3 (HDAC3),Relative Inhibitory Activity HDAC 2/3 (HDAC3),Relative Inhibitory Activity HDAC 5/3 (HDAC3),IC50 (HDAC3),"inhibition of all HDACs tested, result in words (HDACs 1-10)",Structure (SMILES),"frataxin mRNA expression, result in words (frataxin (FXN1) mRNA)",Fold Increase FXN1 Expr. (10 μM) (frataxin (FXN1) mRNA),"cytotoxicity, result in words (HepG2 cells)",HepG2/HDAC3 (estimated therapeutic index) (HepG2 cells),"maximum observed increase of frataxin expression (frataxin (FXN1) mRNA; 1-30 μM, normal lymphocytes, compared to vehicle control (FIG. 1))","frataxin expression, result in words (frataxin (FXN1) mRNA; normal lymphocytes or patient lymphocytes, all concentrations tested (1-30 μM))"
1.63 µM,10 µM,1.19 µM,2.92 µM,strong HDAC3 inhibitory activity,3.7,9.1,5.1,0.32 µM,–,Cc1ccc(NC(=O)CCCCCC(=O)NO)cc1 [Compound 21],effective to increase frataxin expression,2.0 Fold,relatively low cytotoxicity,31,–,–
–,–,–,–,–,–,–,–,–,Sub-micromolar inhibition,"CC(/C=C/C(=O)NO)=C\[C@@H](C)C(=O)c1ccc(N(C)C)cc1 [TSA, trichostatin A]",–,–,–,–,–,–
18.2 µM,112 µM,4.2 µM,5.9 µM,did not show strong inhibition of HDAC3,0.45,0.65,2.0,9.1 µM,–,Cc1ccc(NC(=O)CCCCCC(=O)N2CCN(c3ccccc3)CC2)cc1 [Compound 6],not active to increase frataxin expression,none,–,12.3,–,–

# The remaining lines, values behind:
Structure (SMILES),IC50 (HDAC5),IC50 (HepG2 cells),IC50 (HDAC1),IC50 (HDAC2),"HDAC3 inhibition, result in words (HDAC3)",Relative Inhibitory Activity HDAC 1/3 (HDAC3),Relative Inhibitory Activity HDAC 2/3 (HDAC3),Relative Inhibitory Activity HDAC 5/3 (HDAC3),IC50 (HDAC3),"inhibition of all HDACs tested, result in words (HDACs 1-10)","frataxin mRNA expression, result in words (frataxin (FXN1) mRNA)",Fold Increase FXN1 Expr. (10 μM) (frataxin (FXN1) mRNA),"cytotoxicity, result in words (HepG2 cells)",HepG2/HDAC3 (estimated therapeutic index) (HepG2 cells),"maximum observed increase of frataxin expression (frataxin (FXN1) mRNA; 1-30 μM, normal lymphocytes, compared to vehicle control (FIG. 1))","frataxin expression, result in words (frataxin (FXN1) mRNA; normal lymphocytes or patient lymphocytes, all concentrations tested (1-30 μM))"
"Cc1ccc(NC(=O)CCCCCC(=O)Nc2ccccc2N)cc1 [RGFA8, N^1-(2-aminophenyl)-N^7-p-tolylheptanediamide]",–,–,–,–,–,–,–,–,–,–,–,–,–,–,about 16 fold,increased expression of frataxin
"Nc1ccccc1NC(=O)c1ccc(CNC(=O)OCc2cccnc2)cc1 [MS-275, reference compound]",–,–,–,–,–,–,–,–,–,–,did appreciably increase frataxin mRNA expression,–,may be too cytotoxic for long-term use,–,–,–
